According to patent US8796457B2, “Compound useful for the treatment of degenerative and inflammatory diseases” (Galapagos NV, priority 2009, dated 2014):

Legend:
[1] = target: Recombinant human TYK2 catalytic domain (Homo sapiens (Human), UniProt P29597); assay: TYK2 inhibition assay; type: biochemical; conditions: 0.1 μM ATP
Description: Recombinant human TYK2 catalytic domain (amino acids 871-1187; catalog number 08-147) was purchased from Carna biosciences. 5 ng of TYK2 was incubated with 12.5 μg polyGT substrate (Sigma catalog number P0275) in kinase reaction buffer (25 mM Hepes pH 7.5, 100 mM NaCl, 0.2 mM Na3VO4, 0.1% NP-40, 0.1 μM non-radioactive ATP, 0.125 μCi ^33P-gamma-ATP (GE Healthcare, catalog number AH9968) final concentrations) with or without 5 μL containing test compound or vehicle (DMSO, 1% final concentration), in a total volume of 25 μL, in a polypropylene 96-well plate (Greiner, V-bottom). After 90 min at 30° C., reactions were stopped by adding of 25 μL/well of 150 mM phosphoric acid. […] 40 μL/well of Microscint-20 was added, the top of the plates was sealed and readout was performed using the Topcount (Perkin Elmer). Kinase activity was calculated by subtracting counts per minute (cpm) obtained in the presence of a positive control inhibitor (10 μM staurosporine) from cpm obtained in the presence of vehicle. The ability of a test compound to inhibit this activity was determined as: Percentage inhibition=((cpm determined for sample with test compound present−cpm determined for sample with positive control inhibitor) divided by (cpm determined in the presence of vehicle−cpm determined for sample with positive control inhibitor))*100. […]

[2] = tested on: collagen induced arthritis; assay: Rat collagen induced arthritis (CIA) model; type: in vivo
Description: Completed Freund's adjuvant (CFA) and incomplete Freund's adjuvant (IFA) were purchased from Difco. Bovine collagen type II (CII), lipopolysaccharide (LPS), and Enbrel were obtained from Chondrex (Isle d'Abeau, France); Sigma (P4252, L'Isle d'Abeau, France), Whyett (25 mg injectable syringe, France) Acros Organics (Palo Alto, Calif.), respectively. All other reagents used were of reagent grade and all solvents were of analytical grade.
Dark Agouti rats (male, 7-8 weeks old) are obtained from Harlan Laboratories (Maison-Alfort, France). DBA/1J mice (male, 7 weeks old) were obtained from Centre d'Elevage et de Reproduction JANVIER (CERJ) (Laval, France). Rats and mice were kept on a 12 hours light/dark cycle (0700-1900). The temperature was maintained at 22° C., and food and water were provided ad libitum.
One day before the experiment, CII solution (2 mg/mL) was prepared with 0.05 M acetic acid and stored at 4° C. Just before the immunization, equal volumes of adjuvant (IFA) and CII were mixed by a homogenizer in a pre-cooled glass bottle in an ice water bath. Extra adjuvant and prolonged homogenization might be required if an emulsion is not formed.
Rat: 0.2 mL of the emulsion is injected intradermally at the base of the tail of each rat on day 1, a second booster intradermal injection (CII solution at 2 mg/mL in CFA 0.1 mL saline) is performed on day 9. This immunization method is modified from published methods (Sims N A et al., (2004) Targeting osteoclasts with zoledronic acid prevents bone destruction in collagen-induced arthritis, Arthritis Rheum. 50 2338-2346; Jou et al., 2005).
The therapeutic effects of the test compounds were tested in the rat or mouse CIA model. Animals were randomly divided into equal groups and each group contained 10 animals. All rats are immunized on day 1 and boosted on day 9. All mice were immunized on day 1 and boosted on day 21. Therapeutic dosing lasted from day 16 to day 30. The negative control group was treated with vehicle (MC 0.5%) and the positive control group with Enbrel (10 mg/kg, 3× week., s.c.). A compound of interest was typically tested at 3 doses, e.g. 3, 10, 30 mg/kg, p.o.
Arthritis was scored according the method of Khachigian 2006, Lin et al 2007 and Nishida et al. 2004). […]
AUC of clinical score (AUC score): The area under the curve (AUC) from day 1 to day 14 was calculated for each individual rat. The AUC of each animal was divided by the average AUC obtained for the vehicle in the study from which the data on that animal was obtained and multiplied by 100 (i.e. the AUC was expressed as a percentage of the average vehicle AUC per study).
Clinical score increase from day 1 to day 14 (End point score): The clinical score difference for each animal was divided by the average clinical score difference obtained for the vehicle in the study from which the data on that animal was obtained and multiplied by 100 (i.e. the difference was expressed as a percentage of the average clinical score difference for the vehicle per study).
Post-mortem, a Larsen' score was derived for both hind paws of all rats by at least 2 scientists. The average of these scores was calculated to obtain one Larsen' score per rat. […]

[3] = target: Recombinant human JAK1 (catalytic domain) (Homo sapiens (Human), UniProt P23458); assay: JAK1 inhibition assay; type: biochemical; conditions: average ± standard error of the mean; 7 μM ATP
Description: After 60 min at room temperature, reactions were stopped by adding 20 μL/well of detection mixture (1× detection buffer (Perkin Elmer, catalog number CR97-100C), 0.5 nM Europium-anti-phosphotyrosine (PT66) (Perkin Elmer, catalog number AD0068), 10 mM EDTA). […] Kinase activity was calculated by subtracting relative fluorescence units (RFU) obtained in the presence of a positive control inhibitor (10 μM staurosporine) from RFU obtained in the presence of vehicle.
Dose dilution series were prepared for the compounds enabling the testing of dose-response effects in the JAK1 assay and the calculation of the IC50 for the compound. […] The data are expressed as the average IC50 from the assays±standard error of the mean.

Sequence of Recombinant human JAK1 (catalytic domain) (P23458 866-1154): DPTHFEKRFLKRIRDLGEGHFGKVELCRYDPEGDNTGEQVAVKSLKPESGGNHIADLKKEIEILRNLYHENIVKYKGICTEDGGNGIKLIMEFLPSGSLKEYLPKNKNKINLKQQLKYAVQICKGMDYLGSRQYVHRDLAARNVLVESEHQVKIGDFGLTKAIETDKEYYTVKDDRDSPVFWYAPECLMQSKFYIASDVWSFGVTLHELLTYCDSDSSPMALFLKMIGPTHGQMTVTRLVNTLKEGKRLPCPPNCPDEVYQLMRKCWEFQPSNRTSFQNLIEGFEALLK
Sequence of Recombinant human TYK2 catalytic domain (P29597 871-1187): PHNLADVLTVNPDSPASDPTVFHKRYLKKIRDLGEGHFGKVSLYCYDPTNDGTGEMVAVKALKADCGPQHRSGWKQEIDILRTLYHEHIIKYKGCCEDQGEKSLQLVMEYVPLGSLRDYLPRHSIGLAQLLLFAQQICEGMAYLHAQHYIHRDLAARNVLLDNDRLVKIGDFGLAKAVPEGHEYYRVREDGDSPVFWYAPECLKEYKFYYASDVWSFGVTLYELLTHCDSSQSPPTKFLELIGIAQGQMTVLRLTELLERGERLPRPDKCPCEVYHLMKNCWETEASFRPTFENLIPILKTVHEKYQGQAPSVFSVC

Q: Which results are given for `CC1(C)CN(C(=O)c2ccc(-c3cccc4nc(NC(=O)C5CC5)nn34)cc2)C1` [Compound 1, Cyclopropanecarboxylic acid{5-[4-(3,3-dimethyl-azetidine-1-carbonyl)-phenyl]-[1,2,4]triazolo[1,5-a]pyridin-2-yl}-amide]?
A: IC50 [1]: 219 ± 37 nM; dose from which significant improvement of paw swelling was seen ([2]; rat CIA): ≥ 1 mg/kg; dose from which significant improvement of the AUC of the clinical score was seen ([2]; rat CIA): ≥ 10 mg/kg; dose from which significant improvement of the Larsen' score was seen ([2]; rat CIA): ≥ 30 mg/kg; dose from which significant improvement of the endpoint clinical score was seen ([2]; rat CIA): ≥ 1 mg/kg; efficacy in the rat CIA study ([2]; rat, 30, 10, 3, and 1 mg/kg): efficacious in all readouts; IC50 [3]: 6.6 ± 0.7 nM
